Columns and labels:
Assay type in all cases: physicochemical
[1] = Stability of L-DHO for 18 h at 14° C. in rat serum; settings: for concentration 1 5 μg/ml / Residue (%) / Concentration 2 20 μg/ml: Rat serum, 14° C.
Experimental: (§1) In order to simulate the conditions of the samples when they are waiting in the autosampler for the actual analysis the stability during 18 h at 14° C. was determined. For that reason the cell lysates were spiked and then treated with 30 μl 6 M KOH/100 μl lysate before the start of the analysis. Correspondingly, the serum samples were spiked and then deproteinized as described in 1.5.2. […] In serum samples the analyte is stable under these conditions. For these reasons only so many HPLC samples were prepared that the maximal length of stay in the autosampler was less than 18 h.

[2] = Stability of L-DHO in human serum at −20° C.; settings: for Residue (%) / concentration 1 5 μg/ml / Concentration 2 20 μg/ml: Human serum
Experimental: (§2) A standard stock solution was prepared by dissolving 1 mg L-DHO in 1 ml water. Aliquots of 400 μl were frozen at −20° C. Stability of these solutions was guaranteed for at least 4 weeks. Defined amounts of the stock solution were added to the cell lysates and to human or rat serum and assayed to evaluate the linearity between the increase of the signal and the spiked L-DHO concentration. The precision and the accuracy of the method were investigated by using quality control (QC) samples with an L-DHO content in the low, the middle and the high concentration range of the signal/concentration linearity curve.
(§3) In order to reduce the protein content […] serum were added to a Microcon filter (10 000 D, model 10, code 42407, Amicon) and centrifuged for 30 min at 13 000 rounds per minute (rpm). The flow through consisted of about 150 μl and contains the analyte L-DHO. From this liquid 20 μl were used for HPLC analysis.
(§4) L-DHO was stable under the above mentioned conditions in Jurkat cells over a period of at least 4 weeks. […] For these reasons it can be stated only that in rat and human serum samples L-DHO is definitely stable only for at least 1 week.

[3] = Stability of L-DHO in rat serum at −20° C.; settings: for Residue (%) / concentration 1 5 μg/ml / Concentration 2 20 μg/ml: Rat serum
Experimental: as §2, §3, §4

[4] = Stability of L-DHO in Jurkat cell lysates at −20° C.; settings: Jurkat cells
Experimental: as §2
Cells were suspended in a defined medium volume and cell density of samples was determined via vital microscopy using Eosin. About 10×10^6 cells were removed, pelleted by 5 minute-centrifugation at 350×g and the supernatant was discarded. Lysis of the cells was done by resuspending the cell pellet in 500 μl 1.2 M HClO4. This mixture was transferred in 2.0 ml Eppendorf safe-lock caps and the protein was precipitated by 2 minutes high speed centrifugation. The supernatant was completely removed, transferred in glass vials and after addition of 500 μl chloroform thoroughly mixed by 2 minutes vortexing. Cellular lipids were extracted by chloroform following 10 minutes centrifugation (1502 g) at 10° C. The purified supernatant was collected in 2 ml Eppendorf-caps and stored at −20° C. until further used. For the HPLC analysis 100 μl of this supernatant were neutralized with 30 μl 6 M KOH. After shaking for about 5 sec the samples were stored on ice for 30 min. Thereafter they were centrifuged for 5 min at 15 000 rpm. From the clear supernatant 20 μl were used for the HPLC analysis.
as §4

[5] = Stability of L-DHO for 18 h at 14° C. in human serum; settings: for Residue (%) / concentration 1 5 μg/ml / Concentration 2 20 μg/ml: Human serum, 14° C.
Experimental: as §1

[6] = Stability of L-DHO for 18 h at 14° C. in Jurkat cell lysates; settings: for Residue (%) / concentration 1 20 μg/ml / Concentration 2 100 μg/ml: Jurkat cells, 14° C.
Experimental: as §1

[7] = Stability of L-DHO standard stock solution; settings: 1 mg L-DHO in 1 ml water, frozen at −20° C.
Experimental: as §2

## O=C1C[C@@H](C(=O)O)NC(=O)N1 [L-DHO, L-dihydroorotic acid]
[1]; 5 μg/ml, 0 h
  concentration 1 5 μg/ml: 4610 ng/mL
[1]; 5 μg/ml, 18 h
  Residue (%): 107.6%
  concentration 1 5 μg/ml: 4960 ng/mL
[1]; 20 μg/ml, 0 h
  Concentration 2 20 μg/ml: 19990 ng/mL
  Residue (%): 100%
[1]; 20 μg/ml, 18 h
  Concentration 2 20 μg/ml: 20530 ng/mL
  Residue (%): 102.7%
[1]; rat serum, 18 h at 14° C.
  stability of the analyte in serum samples: stable
[2]; 5 μg/ml, Time 0 (h)
  Residue (%): 100%
  concentration 1 5 μg/ml: 4670 ng/mL
[2]; 5 μg/ml, Time 8 (h)
  Residue (%): 103.0%
  concentration 1 5 μg/ml: 4810 ng/mL
[2]; 5 μg/ml, Time 65 (h)
  Residue (%): 104.3%
  concentration 1 5 μg/ml: 4870 ng/mL
[2]; 20 μg/ml, Time 0 (h)
  Concentration 2 20 μg/ml: 20220 ng/mL
  Residue (%): 100%
[2]; 20 μg/ml, Time 8 (h)
  Concentration 2 20 μg/ml: 20380 ng/mL
  Residue (%): 100.8%
[2]; 20 μg/ml, Time 65 (h)
  Concentration 2 20 μg/ml: 23200 ng/mL
  Residue (%): 114.7%
[2]; human serum
  period over which L-DHO is definitely stable: at least 1 week
[3]; 5 μg/ml, Time 0 (h)
  Residue (%): 100%
  concentration 1 5 μg/ml: 4300 ng/mL
[3]; 5 μg/ml, Time 7 (h)
  Residue (%): 105.1%
  concentration 1 5 μg/ml: 4520 ng/mL
[3]; 5 μg/ml, Time 14 (h)
  Residue (%): 111.9%
  concentration 1 5 μg/ml: 4810 ng/mL
[3]; 5 μg/ml, Time 21 (h)
  Residue (%): 129.1%
  concentration 1 5 μg/ml: 5550 ng/mL
[3]; 20 μg/ml, Time 0 (h)
  Concentration 2 20 μg/ml: 19940 ng/mL
  Residue (%): 100%
[3]; 20 μg/ml, Time 7 (h)
  Concentration 2 20 μg/ml: 19620 ng/mL
  Residue (%): 98.4%
[3]; 20 μg/ml, Time 14 (h)
  Concentration 2 20 μg/ml: 20930 ng/mL
  Residue (%): 105.0%
[3]; 20 μg/ml, Time 21 (h)
  Concentration 2 20 μg/ml: 22330 ng/mL
  Residue (%): 112.2%
[3]; rat serum
  period over which L-DHO is definitely stable: at least 1 week
[4]; 20 μg/ml, 0 days
  Residue (%): 100%
  concentration 1 20 μg/ml: 19340 ng/mL
[4]; 20 μg/ml, 7 days
  Residue (%): 99.7%
  concentration 1 20 μg/ml: 19280 ng/mL
[4]; 20 μg/ml, 29 days
  Residue (%): 103.3%
  concentration 1 20 μg/ml: 19980 ng/mL
[4]; 100 μg/ml, 0 days
  Concentration 2 100 μg/ml: 100050 ng/mL
  Residue (%): 100%
[4]; 100 μg/ml, 7 days
  Concentration 2 100 μg/ml: 99090 ng/mL
  Residue (%): 99.0%
[4]; 100 μg/ml, 14 days
  Concentration 2 100 μg/ml: 115320 ng/mL
  Residue (%): 115.3%
[4]; 100 μg/ml, 29 days
  Concentration 2 100 μg/ml: 99350 ng/mL
  Residue (%): 99.3%
[4]; 2-3 freezing/thawing cycles
  period over which L-DHO was stable: at least 4 weeks
[5]; 5 μg/ml, 0 h
  Residue (%): 100%
  concentration 1 5 μg/ml: 3340 ng/mL
[5]; 5 μg/ml, 18 h
  Residue (%): 100.9%
  concentration 1 5 μg/ml: 3370 ng/mL
[5]; 20 μg/ml, 0 h
  Concentration 2 20 μg/ml: 18780 ng/mL
  Residue (%): 100%
[5]; 20 μg/ml, 18 h
  Concentration 2 20 μg/ml: 22090 ng/mL
  Residue (%): 117.6%
[5]; human serum, 18 h at 14° C.
  stability of the analyte in serum samples: stable
[6]; 20 μg/ml, 0 h
  Residue (%): 100%
  concentration 1 20 μg/ml: 19960 ng/mL
[6]; 20 μg/ml, 18 h
  Residue (%): 93.2%
  concentration 1 20 μg/ml: 18600 ng/mL
[6]; 100 μg/ml, 0 h
  Concentration 2 100 μg/ml: 100020 ng/mL
  Residue (%): 100%
[6]; 100 μg/ml, 18 h
  Concentration 2 100 μg/ml: 97430 ng/mL
  Residue (%): 97.4%
[6]; cells, 18 h at 14° C.
  reduction of L-DHO content: ≤ 7%
[7]
  Stability of standard stock solution: at least 4 weeks
